Assay [1] has as its system voltage-gated Ca^2+ channels (VGCC). As to the kind of experiment: Calcium channel antagonist assay (K+-evoked cytosolic Ca2+, Fluo-4). The class given is cell-based. On the procedure:
The cytosolic Ca^2+ has been measured in SH-SY5Y cells. SH-SY5Y cells were maintained similarly to what was previously described^30. Free cytosolic Ca^2+ was measured using the fluorescent Ca^2+ indicator Fluo-4/AM (Fluo-4 acetomethoxyester). SH-SY5Y cells were seeded onto 96-well black plates at a density of 10^5 cells per well, achieving confluence after 48 h. Cells were washed with Krebs-Hepes solution (KH, in mM: 144 NaCl, 5.9 KCl, 1.2 MgCl2, 2 CaCl2, 11 D-glucose, 10 HEPES, pH 7.4). Cells were loaded with 10 µM Fluo-4/AM and 0.2% pluronic acid in KH and incubated for 45 min at 37 °C in the dark. Then, cells were washed twice with KH to remove the excess of probe. Tested compounds were incubated 10 min before K+ 70 mM was applied to evoke the increment of cytosolic Ca^2+. To normalize Fluo-4 signals, Triton X-100 (5%) and 1 M MnCl2 were applied to register both maximal and minimal fluorescence, respectively. The experiments were analyzed at excitation and emission wavelengths of 485 and 520 nm, respectively, and fluorescence was measured in a fluorescence microplate reader (FLUOstar Optima, BMG, Germany). Data were calculated as a percentage of Fmax - Fmin.
The blocking effect of the depolarization-induced Ca^2+ uptake was investigated in SH-SY5Y neuroblastoma cells stimulated with an extracellular concentration of K+ 70 mM, which induces the cell Ca^2+ levels elevation by opening voltage-gated Ca^2+ channels (VGCC), monitored with the Ca^2+-sensitive fluorescent dye Fluo-4. Nifedipine was used as positive standard.

Assay [2] has as its target T1, human recombinant butyrylcholinesterase (hBuChE; EC 3.1.1.8) (Homo sapiens, UniProt P06276).
T1 construct: purchased Sigma-Aldrich (Prague, Czech Republic)
Description: Cholinesterase inhibition in vitro assay (modified Ellman's method), BuChE. Format: biochemical. Conditions: pH 7.4, 37 °C, mean ± SEM, read-out: BChE (IC50 µM). On the procedure:
The AChE and BuChE inhibitory activity of the tested compounds was determined using a modified Ellman's method^31, 32.Human red-blood cell acetylcholinesterase (hAChE; EC 3.1.1.7), and human recombinant butyrylcholinesterase (hBuChE; EC 3.1.1.8), 5,5'-dithiobis(2-nitrobenzoic acid) (Ellman's reagent, DTNB), phosphate buffer (PB, pH 7.4), acetylthiocholine (ATC), and butyrylthiocholine (BTC), were purchased from Sigma-Aldrich (Prague, Czech Republic). Nunc polystyrene 96-well microplates with flat-bottom shape (ThermoFisher Scientific, USA) were used for the measurement and all the assay were carried out in 0.1 M KH2PO4/K2HPO4 buffer, pH 7.4. Enzyme solution was prepared at activity 2.0 units/mL in 2 mL aliquots. The assay mixture (100 µL) consisted of 40 µL of 0.1 M phosphate buffer (pH 7.4), 20 µL of 0.01 M DTNB, 10 µL of enzyme, and 20 µL of 0.01 M substrate (ATC iodide solution). Tested compounds were dissolved first in methanol (BIGI 23 in DMSO) and then further diluted by assay buffer to the final concentration. […]. […] Enzyme with the inhibitor was preincubated for 5 min in the assay mixture and then the reaction was started by addition of 20 µL of substrate (ATC for AChE, BTC for BuChE). The enzyme activity was determined by measuring the increase in absorbance at 412 nm at 37 °C at 2 min intervals using a Multi-mode microplate reader Synergy 2 (Vermont, USA). Each concentration was assayed in triplicate. The obtained data were used to compute the percentage inhibition (I; Equation 1): I = 1−(ΔAi)/(ΔA0) [%] [formula] ΔAi indicates the absorbance change provided by cholinesterase exposed to AChE inhibitors and ΔA0 indicates absorbance change caused by intact cholinesterase (phosphate buffer was used instead of AChE inhibitor solution). […] Calculations were performed using software Microsoft Excel (Redmont, WA, USA) and GraphPad Prism version 5.02 for Windows, GraphPad Software, San Diego, CA, USA.
For orientation: Ellman's reagent forms a yellow product with free thiols.

A short description of assay [3]: Oxygen Radical Absorbance Capacity (ORAC-FL) assay. Conditions: Trolox equivalents (µmol of Trolox equivalent/µmol of compound). On the procedure:
The radical scavenging capacity of the TFAHs was determined by the ORAC-FL method using fluorescein as a fluorescent probe^33,34. (±)-6-Hydroxy-2,5,7,8-tetramethylchromane-2-carboxylic acid (Trolox), fluorescein (FL) and 2,2'-azobis(amidinopropane) dihydrochloride (AAPH) were purchased from Sigma-Aldrich. A Varioskan Flash plate reader with built-in injectors (Thermo Scientific) was used. The reaction was carried out at 37 °C in 75 mM phosphate buffer (pH= 7.4), and the final volume reaction mixture was 200 µL. The tested compounds and Trolox standard were dissolved in DMSO to 10 mM and further diluted in 75 mM phosphate buffer (pH= 7.4). The final concentrations were 0.1-1 µM for the tested compounds and 1-8 µM for Trolox standard. The blank was composed of 120 µL of FL, 60 µL of AAPH and 20 µL of phosphate buffer (pH=7.4) and was added in each assay.
The net AUC corresponding to a sample was calculated as follows: Net AUC = AUCantioxidant −AUCblank . [formula]
Regression equations were calculated by plotting the net AUC against the antioxidant concentration. The ORAC value was obtained by dividing the slope of the latter curve between the slope of the Trolox curve obtained in the same assay. Final ORAC values were expressed as µmol of Trolox equivalent/µmol of TFAH.

For assay [4], the target named is T2, Human red-blood cell acetylcholinesterase (hAChE; EC 3.1.1.7) (Homo sapiens, UniProt P22303).
T2 construct: Human red-blood cell acetylcholinesterase; purchased Sigma-Aldrich (Prague, Czech Republic); host or cells: human red blood cells
As to the kind of experiment: biochemical. The settings on record: pH 7.4, 37 °C, mean ± SEM, read-out: AChE (IC50 µM). On the procedure:
The AChE and BuChE inhibitory activity of the tested compounds was determined using a modified Ellman's method^31, 32.Human red-blood cell acetylcholinesterase (hAChE; EC 3.1.1.7), and human recombinant butyrylcholinesterase (hBuChE; EC 3.1.1.8), 5,5'-dithiobis(2-nitrobenzoic acid) (Ellman's reagent, DTNB), phosphate buffer (PB, pH 7.4), acetylthiocholine (ATC), and butyrylthiocholine (BTC), were purchased from Sigma-Aldrich (Prague, Czech Republic). Nunc polystyrene 96-well microplates with flat-bottom shape (ThermoFisher Scientific, USA) were used for the measurement and all the assay were carried out in 0.1 M KH2PO4/K2HPO4 buffer, pH 7.4. Enzyme solution was prepared at activity 2.0 units/mL in 2 mL aliquots. The assay mixture (100 µL) consisted of 40 µL of 0.1 M phosphate buffer (pH 7.4), 20 µL of 0.01 M DTNB, 10 µL of enzyme, and 20 µL of 0.01 M substrate (ATC iodide solution). Tested compounds were dissolved first in methanol (BIGI 23 in DMSO) and then further diluted by assay buffer to the final concentration. […] Enzyme with the inhibitor was preincubated for 5 min in the assay mixture and then the reaction was started by addition of 20 µL of substrate (ATC for AChE, BTC for BuChE). […] Each concentration was assayed in triplicate. The obtained data were used to compute the percentage inhibition (I; Equation 1): I = 1−(ΔAi)/(ΔA0) [%] [formula] ΔAi indicates the absorbance change provided by cholinesterase exposed to AChE inhibitors and ΔA0 indicates absorbance change caused by intact cholinesterase (phosphate buffer was used instead of AChE inhibitor solution).

[5] abbreviates: SH-SY5Y cells, K+ 70 mM, mean ± SEM, read-out: IC50 (µM) Calcium channels blockade.

The structures appear in SMILES notation. “And” between values parts separate entries of the source, which are not always exact repeats. Identical values can stand only once. Like-named read-outs stand apart in the source and are kept apart here.

In general, IC50 refers to the midpoint of a concentration-inhibition curve.

T2 sequence (P22303 32-617 isoform P22303-2 limits assumed): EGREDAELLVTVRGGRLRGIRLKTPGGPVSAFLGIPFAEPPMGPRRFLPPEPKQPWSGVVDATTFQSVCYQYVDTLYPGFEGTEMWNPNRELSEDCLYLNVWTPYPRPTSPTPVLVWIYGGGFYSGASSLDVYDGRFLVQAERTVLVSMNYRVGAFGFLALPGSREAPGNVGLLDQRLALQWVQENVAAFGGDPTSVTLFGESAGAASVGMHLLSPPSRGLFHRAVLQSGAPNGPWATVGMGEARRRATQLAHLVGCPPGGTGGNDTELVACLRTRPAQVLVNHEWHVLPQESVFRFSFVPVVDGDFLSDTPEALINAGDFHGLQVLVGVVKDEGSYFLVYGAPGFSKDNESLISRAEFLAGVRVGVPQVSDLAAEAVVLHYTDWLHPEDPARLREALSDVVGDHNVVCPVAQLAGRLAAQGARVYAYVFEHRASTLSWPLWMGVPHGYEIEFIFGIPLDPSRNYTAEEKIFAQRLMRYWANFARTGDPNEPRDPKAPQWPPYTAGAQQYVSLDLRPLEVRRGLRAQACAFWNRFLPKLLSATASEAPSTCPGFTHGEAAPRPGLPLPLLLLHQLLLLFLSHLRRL
T1 sequence (P06276 29-602): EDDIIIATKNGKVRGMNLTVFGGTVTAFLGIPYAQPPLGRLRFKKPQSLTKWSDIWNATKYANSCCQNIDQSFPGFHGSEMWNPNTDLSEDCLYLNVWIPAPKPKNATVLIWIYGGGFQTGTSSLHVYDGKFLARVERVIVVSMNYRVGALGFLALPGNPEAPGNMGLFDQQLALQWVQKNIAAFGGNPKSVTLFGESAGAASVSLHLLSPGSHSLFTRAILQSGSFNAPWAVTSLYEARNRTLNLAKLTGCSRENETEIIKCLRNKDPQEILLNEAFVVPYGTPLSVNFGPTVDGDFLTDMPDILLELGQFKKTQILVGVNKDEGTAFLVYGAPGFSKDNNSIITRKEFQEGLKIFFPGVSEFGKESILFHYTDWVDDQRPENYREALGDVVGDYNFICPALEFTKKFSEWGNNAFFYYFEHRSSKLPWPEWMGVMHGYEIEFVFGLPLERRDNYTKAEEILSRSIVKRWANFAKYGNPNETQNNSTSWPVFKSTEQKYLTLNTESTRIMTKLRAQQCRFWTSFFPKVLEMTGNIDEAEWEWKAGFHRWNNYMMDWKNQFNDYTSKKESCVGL

Regarding `CCOC(=O)C1=C(C)N(CC2CCN(Cc3ccccc3)CC2)C(=O)NC1c1coc2ccccc2c1=O` (stereo not shown) [BIGI-3a, ethyl 1-((1-benzylpiperidin-4-yl)methyl)-6-methyl-2-oxo-4-(4-oxo-4H-chromen-3-yl)-1,2,3,4-tetrahydropyrimidine-5-carboxylate], the IC50 was found to be 14 ± 3 µM in assay [1] (setting [5]) and 14.8 ± 0.7 µM in assay [2]. The ORAC in assay [3] was 3.29 ± 0.07 TE.

In the case of `CCOC(=O)C1=C(C)N(CC2CCN(Cc3ccccc3)CC2)C(=O)NC1c1coc2ccc(Br)cc2c1=O` (stereo not shown) [BIGI-3b, ethyl 1-((1-benzylpiperidin-4-yl)methyl)-4-(6-bromo-4-oxo-4H-chromen-3-yl)-6-methyl-2-oxo-1,2,3,4-tetrahydropyrimidine-5-carboxylate], in assay [1] (setting [5]), the half-maximal inhibitory concentration (IC50) was found to be 6 ± 3 µM. In assay [3], the ORAC is recorded as 2.06 ± 0.17 TE.

Regarding `CCOC(=O)C1=C(C)N(CC2CCN(Cc3ccccc3)CC2)C(=O)NC1c1coc2cc(CC)ccc2c1=O` (stereo not shown) [BIGI-3c, ethyl 1-((1-benzylpiperidin-4-yl)methyl)-4-(7-ethyl-4-oxo-4H-chromen-3-yl)-6-methyl-2-oxo-1,2,3,4-tetrahydropyrimidine-5-carboxylate], the 50% inhibitory concentration (IC50) in assay [1] (setting [5]) came out at 3 ± 0.9 µM; in assay [4], 6.08 ± 0.38 µM; in assay [2] it was 36.1 ± 3.1 µM. Also, the ORAC in assay [3] stood at 3.51 ± 0.09 TE.

For `CCOC(=O)C1=C(C)N(CCC2CCN(Cc3ccccc3)CC2)C(=O)NC1c1coc2ccccc2c1=O` (stereo not shown) [BIGI-3d, ethyl 1-(2-(1-benzylpiperidin-4-yl)ethyl)-6-methyl-2-oxo-4-(4-oxo-4H-chromen-3-yl)-1,2,3,4-tetrahydropyrimidine-5-carboxylate], the IC50 in assay [1] (setting [5]) is 9 ± 2 µM; in assay [4], 0.23 ± 0.01 µM; in assay [2] it was 6.58 ± 0.34 µM. Besides, in assay [3], the ORAC is on record as 2.53 ± 0.17 TE.

On to `CCOC(=O)C1=C(C)N(CCC2CCN(Cc3ccccc3)CC2)C(=O)NC1c1coc2cc(CC)ccc2c1=O` (stereo not shown) [BIGI-3f, ethyl 1-(2-(1-benzylpiperidin-4-yl)ethyl)-4-(7-ethyl-4-oxo-4H-chromen-3-yl)-6-methyl-2-oxo-1,2,3,4-tetrahydropyrimidine-5-carboxylate], for which the IC50 is 2.2 ± 0.6 µM in assay [1] (setting [5]), 0.3 ± 0.01 µM in assay [4] and 5.96 ± 0.22 µM in assay [2]. Further, in assay [3], the ORAC amounted to 2.20 ± 0.05 TE.

As to `CCOC(=O)C1=C(C)N(CCC2CCN(Cc3ccccc3)CC2)C(=O)NC1c1coc2cc(C)c(Cl)cc2c1=O` (stereo not shown) [BIGI-3g, ethyl 1-(2-(1-benzylpiperidin-4-yl)ethyl)-4-(6-chloro-7-methyl-4-oxo-4H-chromen-3-yl)-6-methyl-2-oxo-1,2,3,4-tetrahydropyrimidine-5-carboxylate], the half-maximal inhibitory concentration (IC50) in assay [1] (setting [5]) amounted to 1.7 ± 0.6 µM; in assay [4], 0.29 ± 0.01 µM; in assay [2], 15.7 ± 0.9 µM. The ORAC in assay [3] came out at 2.56 ± 0.13 TE.

Turning to `CCOC(=O)C1=C(C)N(CCCC2CCN(Cc3ccccc3)CC2)C(=O)NC1c1coc2ccccc2c1=O` (stereo not shown) [BIGI-3i, ethyl 1-(3-(1-benzylpiperidin-4-yl)propyl)-6-methyl-2-oxo-4-(4-oxo-4H-chromen-3-yl)-1,2,3,4-tetrahydropyrimidine-5-carboxylate], the results for the 50% inhibitory concentration (IC50) in assay [1] (setting [5]), in assay [4] and in assay [2] were 8 ± 1 µM, 0.15 µM and 4.29 ± 0.09 µM, respectively. In addition, the ORAC in assay [3] worked out at 3.09 ± 0.07 TE.

For `CCOC(=O)C1=C(C)N(CCCC2CCN(Cc3ccccc3)CC2)C(=O)NC1c1coc2ccc(Br)cc2c1=O` (stereo not shown) [BIGI-3j, ethyl 1-(3-(1-benzylpiperidin-4-yl)propyl)-4-(6-bromo-4-oxo-4H-chromen-3-yl)-6-methyl-2-oxo-1,2,3,4-tetrahydropyrimidine-5-carboxylate], the IC50 in assay [1] (setting [5]) is 3.8 ± 0.1 µM; in assay [4] it was 0.18 ± 0.01 µM; in assay [2], 6.51 ± 0.45 µM. The ORAC in assay [3] is 3.24 ± 0.02 TE.

Turning to `COc1cc(/C=C/C(=O)O)ccc1O` [Ferulic acid, reference compound], in assay [3], the ORAC is 3.7 TE and 3.7 ± 0.2 TE.

Consider `COC(=O)C1=C(C)NC(C)=C(C(=O)OC)C1c1ccccc1[N+](=O)[O-]` [Nifedipine, reference compound], for which the IC50 in assay [1] (read-out: IC50 (µM) Calcium channels blockade, SH-SY5Y cells, K+ 70 mM, mean ± SEM) is 6.2 ± 0.2 µM.

Source of the values: EP4168403B1 (priority 2020, dated 2021).
